Laboratory results from patent US7132568B2, “Aspartyl protease inhibitors” (Sunesis Pharmaceuticals, Inc., priority 2002, dated 2006).

Experiments:
[1] = tested on: H4 neuroglioma cells stably transfected with APP (H4 β695wt); assay: Cell-based Aβ secretion assay (sandwich ELISA) in H4 cells; details: Homo sapiens
Description: This example describes an illustrative set of cell-based assays for testing the ability of the compounds of the present invention to inhibit the secretion of the Aβ peptide from cells expressing high levels of the human amyloid precursor protein (“APP”).
A representative set of such cells include A-204 rhabdomyosarcoma cells, human embryonic kidney 293 cells transiently transfected with APP, Chinese hamster ovary cells stably transfected with APP (CHO2B7), and H4 neuroglioma cells stably transfected with APP (H4 β695wt). The A-204 cells and HEK 293 cells were obtained from ATCC. For HEK 293 transient transfections, a pcDNA3 plasmid containing the human APP gene was obtained from Invitrogen, and cells were transfected with FuGENE 6 transfection reagent (Roche) following manufacturer's protocols. The CHO2B7 and H4 β695 wt lines were obtained from Mayo Clinic (J. Neuroscience Methods 108(2): 171–9 (2001)). […]
In the assay, cells were pre-treated with compounds for 1–2 hours to “wash out” any Aβ in the secretory pathway prior to incubation with compounds for the conditioning period required to generate detectable concentrations of Aβ. The production of secreted Aβ in cultured cells was monitored by sandwich ELISA, using the anti-Aβ monoclonal antibodies 6E10 and 4G8 (Signet Laboratories). […]

Cat D = Cat D (Homo sapiens, UniProt P07339); assay: Cat D Ki determination (DABCYL/EDANS substrate); assay type: biochemical
Procedure: The Ki determination for Cat D was performed using the assay conditions derived from Haque et al., J. Med. Chem. 42: 1428–1440 (1999) and the following substrate: DABCYL-GLu-Arg-Nle-Phe-Leu-Ser-Phe-Pro-EDANS where Nle is norleucine and DABCYL and EDANS are as previously defined.

[2] = Metabolic stability in human liver microsomes; assay type: in vitro ADME; details: pH 7.4
Procedure: Metabolic stability was determined by incubating the compounds with human liver microsomes (100 μg/ml) in 100 mM Tris buffer pH 7.4 for 5 minutes at 37° C. Metabolic reactions were started by addition of NADPH to give a final concentration of […]. Reactions were stopped after 30 and 60 minutes by addition of acetonitrile. Protein was precipitated by centrifugation (3000 rpm×10 min) then supernatants were analyzed for remaining parent compound by LC/MS/MS.

[3] = Plasma stability in human plasma; assay type: in vitro ADME; details: 37° C.
Procedure: Plasma stability was determined by incubating the compounds in human plasma at a concentration of 1 μM at 37° C. for 0, 30 and 60 minutes. Reactions were stopped by addition of acetonitrile. Protein was precipitated by centrifugation (3000 rpm×10 min) then supernatants were analyzed for remaining parent compound by LC/MS/MS.

Cat D, sequence (P07339 65-412): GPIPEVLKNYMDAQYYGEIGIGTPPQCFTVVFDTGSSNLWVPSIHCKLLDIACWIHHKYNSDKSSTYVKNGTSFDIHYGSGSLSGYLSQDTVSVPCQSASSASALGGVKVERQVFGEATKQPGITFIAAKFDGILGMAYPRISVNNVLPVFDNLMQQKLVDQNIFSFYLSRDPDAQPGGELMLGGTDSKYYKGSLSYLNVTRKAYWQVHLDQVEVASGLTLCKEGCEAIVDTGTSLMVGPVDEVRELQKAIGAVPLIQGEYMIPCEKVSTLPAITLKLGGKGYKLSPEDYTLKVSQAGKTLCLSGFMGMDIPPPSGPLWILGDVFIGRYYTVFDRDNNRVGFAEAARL

| IC50 [1] | Ki (Cat D) | recovery at 60 min [2] | recovery at 1 h, 1 μM [3] | preference for Cat D over BACE (Cat D; BACE Ki versus Cat D Ki) | Compound | preference for BACE over Cat D (Cat D; Cat D Ki versus BACE Ki) |
| --- | --- | --- | --- | --- | --- | --- |
| 740 nM | 610 nM | 43% | 100% | – | CCCN(CCC)C(=O)c1cccc(C(=O)N[C@@H](CC(C)C)[C@@H](N)C[C@@H](C)C(=O)N[C@H](C(=O)NCc2ccccc2)C(C)C)c1 [R = NH2] | over a three fold preference for BACE over Cat D |
| 2000 nM | 20 nM | 0% | 100% | 7.5 fold | CCCN(CCC)C(=O)c1cccc(C(=O)N[C@@H](CC(C)C)[C@@H](O)C[C@@H](C)C(=O)N[C@H](C(=O)NCc2ccccc2)C(C)C)c1 [R = OH] | – |
